Measurements as given in patent US20240180887A1, “USE OF PPAR(gamma) AGONISTS OR MPC INHIBITORS FOR TREATING PRIMARY, INNATE DISEASES OF THE CARDIAC MUSCLE (CARDIOMYOPATHIES)” (PREVENTAGE THERAPEUTICS GMBH, priority 2021, published 2024).
Entries after “also recorded” stand apart in the source; their conditions may differ.

Experiments:
[1] = tested on: radical oxygen species (ROS); assay: Radical oxygen species (ROS) in left ventricular myocardium by electron paramagnetic resonance spectroscopy; format: in vivo, mouse; details: αMHC^719/+ mice treated with pioglitazone vs untreated HCM mice, 6 weeks, p=0.053
Excerpt: Reduction of oxidative stress: The treatment with PPARγ agonists leads to reduced expression of hypoxia-inducible factor 1-alpha, a major transcription factor in the redox signaling pathway. As a result, less radical oxygen species are produced in the left ventricular myocardium, thereby reducing cellular oxidative stress. A protective effect on the pathological remodeling of the cardiac muscle was observed.
Electron paramagnetic resonance (EPR) was applied as described in order to calculate the production of radical oxygen species (ROS) in the left ventricular myocardium^46-48. […] The analysis of ROS generation was carried out at 37° C. for 10 minutes with 20 scans in an Escan EPR spectrometer under temperature control (Noxygen) and the following parameters: microwave power 23.89 mW; center field 3459-3466 G; steep width 10 G, frequency 9.7690 GHz and modulation amplitude 2.93 G. ROS generation was calculated by means of linear regression and normalized to the cellular protein content.

HCM mice (αMHC^719/+) [2] = assay: Heart-to-body weight ratio ex vivo after organ removal; format: in vivo, mouse; details: αMHC^719/+ mice, pioglitazone 10 mg/kg of body weight/day orally, 6 weeks, vs untreated αMHC^719/+ mice, p=0.008
Procedure: The mice were weighed and euthanized to calculate the heart-to-body weight ratio. The thorax was opened quickly, and the heart was removed and washed twice in cold PBS solution. The large vessels and connective tissue were removed, the heart was swapped dry and weighed, and the heart and body weight of the mouse were determined.

[3] = tested on: αMHC^719/+ HCM mouse model; assay: Preclinical αMHC^719/+ HCM mouse model, overall summary of results; format: in vivo; details: oral administration in the αMHC^719/+ HCM mouse model
Procedure: The examinations were carried out on an established HCM mouse model, in which an arginine-to-tryptophan mutation at position 719 of the heavy chain of the cardiac mouse alpha-myosin gene was effected by homologous recombination (referred to as αMHC^719/+)^38. Such genetically modified mice increasingly develop the typical pathognomonic disease characteristics of hypertrophic cardiomyopathy such as myocardial hypertrophy and fibrosis with increasing age. The phenotype of this genetically generated HCM mouse model thus simulates the phenotype of HCM patients affected^36,37,38. The manifestation of the disease can be accelerated by subcutaneous administration of the calcineurin inhibitor cyclosporin A (CsA)^9.
Between their 6th and 12th postnatal week, all mice were injected subcutaneously with cyclosporin A (CsA) to accelerate hypertrophic remodeling in the myocardium in the HCM mouse model^9. Half of the mice were treated with the PPARγ agonists rosiglitazone and pioglitazone from the group of thiazolidinediones between their 6th and 12th postnatal week. In their 12th postnatal week, they were subjected to in vivo transthoracic echocardiography. The animals were then euthanized for ex vivo examination (organ removal, histopathology, and determination of radical oxygen species, of mRNA and protein expression in the tissue) (see FIG. 10).D

[4] = tested on: Acta1, Col1a1, Col1a2, Cyba, Gdf15, Hif1a, Icam1, IL33, Mmp2, Nfkb1, Nox4, Nppa, Postn, Tgfb1, Tgfb2, Tgfb3; assay: mRNA expression of pro-hypertrophic, pro-fibrotic and pro-inflammatory genes in left ventricular myocardium (RNA sequencing); format: in vivo, mouse; details: αMHC^719/+ mice treated with pioglitazone vs untreated, p<0.001
Procedure: FIG. 8 The mRNA expression of pro-hypertrophic, pro-fibrotic, and pro-inflammatory genes such as Acta1, Col1a1, Col1a2, Cyba, Gdf15, Hif1a, Icam1, IL33, Mmp2, Nfkb1, Nox4, Nppa, Postn, Tgfb1, Tgfb2, and Tgfb3 is increased in the left ventricular myocardium of αMHC^719/+ HCM mice (HET) compared to wild-type mice (WT) (HET/WT). […] Strand-specific, polyA-enriched RNA sequencing was carried out as described above^51. The RNA was isolated using the AllPrep RNA Kit (Qiagen). The RNA integrity number (RIN) was determined using the Agilent 2100 BioAnalyzer (RNA 6000 Nano Kit, Agilent). In order to prepare the library, 1 μg RNA was poly(A)-selected, fragmented, and reverse-transcribed with the Elute, Prime, Fragment Mix (Illumina). […] RNA libraries were tested for quality and quantity using the Agilent 2100 BioAnalyzer and the Quant-iT PicoGreen dsDNA Assay Kit (Life Technologies). […] The STAR Aligner (version 2.4.2a)^52 with modified parameter settings (--twopassMode=Basic) was used for the split-read alignment against the […] genome assembly hg19 (GRCh37) and the UCSC knownGene annotation. HTseq-count (version 0.6.0)^53 was used to quantify the number of reads mapped to annotated genes. FPKM values (fragments per kilobase of transcript per million fragments mapped) were calculated using custom scripts. […]

HCM mice (αMHC^719/+) [5] = assay: Histopathology of left ventricular myocardium, Masson's trichrome (myocardial fibrosis), experimental setup A; format: in vivo, mouse
Excerpt: FIG. 6 Histopathology of the left ventricular myocardium of wild-type (WT) and HCM mice (αMHC^719/+) with and without treatment with pioglitazone (PIO) after 6 weeks; myocardial fibrosis appears in medium gray in the Masson's trichrome-stained histological sections. […] HCM mice show massive myocardial fibrosis (white arrows in (C)).
In order to quantify myocardial fibrosis, the removed hearts were fixed in 4% paraformaldehyde, dehydrated, and placed in paraffin, as described above^37,42,43. 5-μm sections were stained with Masson's trichrome and hematoxylin-eosin. The extent of myocardial fibrosis was quantified by a digitized method by calculating the percentage of cardiac muscle portions stained blue with Masson's trichrome in relation to the overall stained cardiac muscle. Perivascular and intramurine structures, the endocardium, or trabeculas were excluded in the calculation of the percentage of fibrosis.

cardiac myosin = assay: Mant-ATP assay of left ventricular cardiac myosins (DRX vs SRX state); format: in vivo, mouse; details: αMHC^719/+ mice treated with pioglitazone vs untreated αMHC^719/+ mice
Excerpt: FIG. 5 Examination of the percentages of left ventricular cardiac myosins in the DRX (disordered relaxation) compared to the SRX (super-relaxed) state using a fluorescent ATP analog. […] The treatment of the HCM mouse model with pioglitazone thus also has a positive effect on the functional properties of the left ventricular heart muscle tissue. The results of this Mant-ATP assay indicate that it was possible to prevent the changes in the biophysical properties of the myosins, which are described as being the cause of hypertrophic cardiomyopathy, in the mice treated with pioglitazone.
Cardiac myosin ATPase activity was measured by Mant-ATP assay, which examines cardiomyocyte contractility and relaxation indirectly by measuring the activity of cardiac myosin ATPase. For this purpose, the Mant-ATP assay (Roche) was applied in the left ventricular myocardium of the different mouse groups, which was shock-frosted in liquid nitrogen and stored in frozen state at −80° C. Mant-ATP is a fluorescent, […] ATP that binds the head of the cardiac myosin. The assay measures the release of Mant-ATP after addition of ATP^44,45.

## CCc1ccc(CCOc2ccc(CC3SC(=O)NC3=O)cc2)nc1 (racemic) [pioglitazone, (RS)-5-{p-[2-(5-ethyl-2-pyridyl)ethoxy]benzyl}-2,4-thiazolidinedione]
[1]
  production of radical oxygen species in the left ventricular myocardium: significantly decreased
[1]; listed as poglitazone
  production of radical oxygen species in the left ventricular myocardium: significantly reduced
HCM mice (αMHC^719/+) [2]
  development of myocardial hypertrophy (heart-to-body weight ratio ex vivo): completely inhibited
[3]
  changes in biophysical properties in the heart muscle cell and onset of myocardial hypertrophy and fibrosis: largely prevents
[4]
  overexpression of pro-hypertrophic, pro-fibrotic and pro-inflammatory genes (HET+PIO/HET): significantly reduced or completely prevented; also recorded: prevents
HCM mice (αMHC^719/+) [5]; wild-type mice with treatment with pioglitazone, 6 weeks
  myocardial fibrosis in wild-type mice: hardly any fibrosis
HCM mice (αMHC^719/+) [5]; αMHC^719/+ mice, pioglitazone 10 mg/kg of body weight/day orally, 6 weeks
  formation of myocardial fibrosis (histological sections): almost completely prevents the formation of myocardial fibrosis
HCM mice (αMHC^719/+) [5]; αMHC^719/+ mice, pioglitazone 10 mg/kg/day orally vs untreated HCM mice, p=0.017
  fibrosis after semi-automated threshold detection of collagen (ImageJ): significantly less fibrosis
Cardiac myosin
  percentages of left ventricular cardiac myosins in the DRX compared to the SRX state: significant shift towards the SRX state; also recorded: prevents the functional biophysical changes
